For orientation: IC50 means the concentration that gives 50% inhibition.

Consider two compounds from patent publication US9834518B2, “Compounds for inhibiting cell proliferation in EGFR-driven cancers” (ARIAD Pharmaceuticals, Inc., priority 2011, dated 2017).

Test [1] concerns the target EGFR bearing the L858R/T790M double mutation (Homo sapiens, UniProt P00533, L858R/T790M). The test is described as follows: Kinase inhibition, EGFR L858R/T790M. Particulars: 10 μM ATP; 10 pt curves, 3 μM top concentration (singlicates). The class given is biochemical. The procedure, abridged: (§1)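 Compounds were titrated over ten points starting at 3 μM, each point in singlicate, and kinase activity was measured in the presence of 10 μM ATP.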

In test [2] the target is EGFR bearing the L858R mution (Homo sapiens, UniProt P00533, L858R). The test is described as follows: Kinase inhibition, EGFR L858R. The format is biochemical. The note with it: 10 μM ATP; 10 pt curves, 3 μM top concentration (singlicates). The procedure, abridged:
as §1

The test system of test [3] is BAF3 EGFR L858R-T790M PURO POOL. The test is described as follows: Cell proliferation (MTT), BAF3 EGFR L858R-T790M. The class given is cell-based. Particulars: Ba/F3 EGFR. The procedure, abridged:
(§2)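 Viability by MTT colorimetry. Cells: BaF3 transfected with mutant EGFR, plus a wildtype-EGFR BaF3 counter-screen.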

Test [4] addresses human EGFR (native sequence) (Homo sapiens, UniProt P00533). The test is described as follows: Kinase inhibition, human EGFR (native sequence). The format is biochemical. The note with it: 10 μM ATP; 10 pt curves, 3 μM top concentration (singlicates). The procedure, abridged:
as §1

The subject of the next test is BAF3 PARENTAL
The test is described as follows: Cell proliferation (MTT), BAF3 parental. The class given is cell-based. The note with it: Mus musculus. The procedure: We also assessed the antiproliferative activity of compounds of Formula (I) against BaF3 cells expressing the target EGFR mutations or control (i.e., cell lines expressing wildtype EGFR). Assays were conducted using MTT.

In test [5] the target is BAF3 EGFR DEL T790M PURO POOL (Homo sapiens, UniProt P00533, DEL746-750/T790M, cells depend on it). The test is described as follows: Cell proliferation (MTT), BAF3 EGFR DEL T790M. The format is cell-based. In short, it runs like this:
as §2

Sequence of EGFR bearing the L858R/T790M double mutation (P00533 25-1210 T790M/L858R): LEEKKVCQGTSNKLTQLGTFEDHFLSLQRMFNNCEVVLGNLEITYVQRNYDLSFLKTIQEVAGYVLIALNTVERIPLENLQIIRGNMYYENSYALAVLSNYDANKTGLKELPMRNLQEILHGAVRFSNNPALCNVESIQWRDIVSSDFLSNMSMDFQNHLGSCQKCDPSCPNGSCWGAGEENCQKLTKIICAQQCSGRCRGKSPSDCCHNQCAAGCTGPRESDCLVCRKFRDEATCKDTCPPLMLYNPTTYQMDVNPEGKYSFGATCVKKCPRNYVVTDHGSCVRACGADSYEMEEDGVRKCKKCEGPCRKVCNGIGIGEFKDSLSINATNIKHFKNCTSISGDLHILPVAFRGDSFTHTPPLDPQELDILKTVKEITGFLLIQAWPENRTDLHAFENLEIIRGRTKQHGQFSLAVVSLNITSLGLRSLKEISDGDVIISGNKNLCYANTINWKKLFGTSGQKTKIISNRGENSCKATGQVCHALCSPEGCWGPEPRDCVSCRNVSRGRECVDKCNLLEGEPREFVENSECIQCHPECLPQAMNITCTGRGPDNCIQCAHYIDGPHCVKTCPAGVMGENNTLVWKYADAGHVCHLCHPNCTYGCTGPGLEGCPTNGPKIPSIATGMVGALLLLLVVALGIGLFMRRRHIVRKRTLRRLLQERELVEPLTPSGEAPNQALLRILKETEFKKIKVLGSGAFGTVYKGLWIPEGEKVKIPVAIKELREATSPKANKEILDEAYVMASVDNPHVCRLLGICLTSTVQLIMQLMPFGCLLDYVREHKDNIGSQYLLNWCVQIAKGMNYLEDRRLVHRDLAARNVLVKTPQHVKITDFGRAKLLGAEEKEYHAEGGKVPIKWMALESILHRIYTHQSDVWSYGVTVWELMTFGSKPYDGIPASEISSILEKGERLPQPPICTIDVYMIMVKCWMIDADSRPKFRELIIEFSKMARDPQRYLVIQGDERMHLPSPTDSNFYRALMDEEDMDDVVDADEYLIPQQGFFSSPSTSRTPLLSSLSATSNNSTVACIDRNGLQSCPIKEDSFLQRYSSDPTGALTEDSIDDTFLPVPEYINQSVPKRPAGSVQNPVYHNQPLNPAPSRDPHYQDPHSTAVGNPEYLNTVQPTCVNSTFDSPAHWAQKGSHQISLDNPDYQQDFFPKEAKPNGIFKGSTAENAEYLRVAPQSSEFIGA
Sequence of human EGFR (native sequence) (P00533 25-1210): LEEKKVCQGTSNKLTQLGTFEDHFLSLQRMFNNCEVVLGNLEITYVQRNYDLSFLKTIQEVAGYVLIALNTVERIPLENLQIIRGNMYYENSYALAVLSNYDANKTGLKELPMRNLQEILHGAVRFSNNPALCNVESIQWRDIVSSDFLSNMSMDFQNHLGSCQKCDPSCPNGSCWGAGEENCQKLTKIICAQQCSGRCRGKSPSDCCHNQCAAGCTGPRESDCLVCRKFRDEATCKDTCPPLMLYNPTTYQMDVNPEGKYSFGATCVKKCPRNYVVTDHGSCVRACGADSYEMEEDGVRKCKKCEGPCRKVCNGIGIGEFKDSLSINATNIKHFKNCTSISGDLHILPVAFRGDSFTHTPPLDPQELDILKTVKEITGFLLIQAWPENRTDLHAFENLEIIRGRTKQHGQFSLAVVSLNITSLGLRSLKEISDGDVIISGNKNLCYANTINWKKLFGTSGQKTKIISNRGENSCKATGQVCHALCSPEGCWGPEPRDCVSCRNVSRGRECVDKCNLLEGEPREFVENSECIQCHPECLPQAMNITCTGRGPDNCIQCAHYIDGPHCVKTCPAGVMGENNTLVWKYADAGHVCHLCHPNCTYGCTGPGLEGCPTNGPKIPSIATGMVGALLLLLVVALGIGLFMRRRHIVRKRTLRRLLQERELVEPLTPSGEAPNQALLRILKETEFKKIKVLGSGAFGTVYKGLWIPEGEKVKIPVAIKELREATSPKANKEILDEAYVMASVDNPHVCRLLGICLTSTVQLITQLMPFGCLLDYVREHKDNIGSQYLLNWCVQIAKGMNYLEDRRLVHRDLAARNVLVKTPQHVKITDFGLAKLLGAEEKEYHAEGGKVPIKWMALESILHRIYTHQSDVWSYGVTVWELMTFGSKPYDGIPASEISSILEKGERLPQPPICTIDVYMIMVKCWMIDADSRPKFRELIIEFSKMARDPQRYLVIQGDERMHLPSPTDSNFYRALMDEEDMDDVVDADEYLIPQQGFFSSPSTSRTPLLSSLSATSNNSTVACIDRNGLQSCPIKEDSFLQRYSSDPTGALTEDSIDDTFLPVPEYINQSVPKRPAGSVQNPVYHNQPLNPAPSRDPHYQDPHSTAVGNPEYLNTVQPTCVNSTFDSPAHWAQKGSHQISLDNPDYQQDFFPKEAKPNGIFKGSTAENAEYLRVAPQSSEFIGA
Sequence of EGFR bearing the L858R mution (P00533 25-1210 L858R): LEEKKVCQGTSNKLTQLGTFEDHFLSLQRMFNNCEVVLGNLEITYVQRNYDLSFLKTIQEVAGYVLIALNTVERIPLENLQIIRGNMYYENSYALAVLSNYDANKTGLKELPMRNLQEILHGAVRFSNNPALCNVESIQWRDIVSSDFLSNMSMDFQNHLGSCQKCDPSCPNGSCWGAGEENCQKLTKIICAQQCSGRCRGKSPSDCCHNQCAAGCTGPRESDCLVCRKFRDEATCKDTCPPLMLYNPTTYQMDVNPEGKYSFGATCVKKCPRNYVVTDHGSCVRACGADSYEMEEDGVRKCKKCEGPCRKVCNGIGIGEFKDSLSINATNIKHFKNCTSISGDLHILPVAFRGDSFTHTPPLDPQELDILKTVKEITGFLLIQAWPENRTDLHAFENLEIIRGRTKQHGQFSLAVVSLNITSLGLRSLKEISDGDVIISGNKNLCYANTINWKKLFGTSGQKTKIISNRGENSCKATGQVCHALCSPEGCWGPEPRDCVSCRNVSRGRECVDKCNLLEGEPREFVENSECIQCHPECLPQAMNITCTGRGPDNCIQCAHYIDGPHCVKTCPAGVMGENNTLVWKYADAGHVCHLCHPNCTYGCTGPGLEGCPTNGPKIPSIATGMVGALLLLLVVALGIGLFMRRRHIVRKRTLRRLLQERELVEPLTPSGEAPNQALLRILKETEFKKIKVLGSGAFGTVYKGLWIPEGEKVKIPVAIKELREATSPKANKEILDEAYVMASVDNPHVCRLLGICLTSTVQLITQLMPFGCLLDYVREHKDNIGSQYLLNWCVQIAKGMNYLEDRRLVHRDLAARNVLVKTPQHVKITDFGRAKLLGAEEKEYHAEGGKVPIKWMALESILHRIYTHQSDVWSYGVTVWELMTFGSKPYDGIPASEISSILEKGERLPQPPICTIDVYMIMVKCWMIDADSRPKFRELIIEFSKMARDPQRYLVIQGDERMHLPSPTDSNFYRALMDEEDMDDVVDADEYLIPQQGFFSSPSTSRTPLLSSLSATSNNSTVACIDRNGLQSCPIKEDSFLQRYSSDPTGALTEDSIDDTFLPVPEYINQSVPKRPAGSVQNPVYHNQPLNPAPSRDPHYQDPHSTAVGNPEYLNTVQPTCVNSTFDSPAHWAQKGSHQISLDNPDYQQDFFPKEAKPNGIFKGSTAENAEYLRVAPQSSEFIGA
Sequence of BAF3 EGFR DEL T790M PURO POOL (P00533 with tags, fused parts or gaps DEL746-750/T790M): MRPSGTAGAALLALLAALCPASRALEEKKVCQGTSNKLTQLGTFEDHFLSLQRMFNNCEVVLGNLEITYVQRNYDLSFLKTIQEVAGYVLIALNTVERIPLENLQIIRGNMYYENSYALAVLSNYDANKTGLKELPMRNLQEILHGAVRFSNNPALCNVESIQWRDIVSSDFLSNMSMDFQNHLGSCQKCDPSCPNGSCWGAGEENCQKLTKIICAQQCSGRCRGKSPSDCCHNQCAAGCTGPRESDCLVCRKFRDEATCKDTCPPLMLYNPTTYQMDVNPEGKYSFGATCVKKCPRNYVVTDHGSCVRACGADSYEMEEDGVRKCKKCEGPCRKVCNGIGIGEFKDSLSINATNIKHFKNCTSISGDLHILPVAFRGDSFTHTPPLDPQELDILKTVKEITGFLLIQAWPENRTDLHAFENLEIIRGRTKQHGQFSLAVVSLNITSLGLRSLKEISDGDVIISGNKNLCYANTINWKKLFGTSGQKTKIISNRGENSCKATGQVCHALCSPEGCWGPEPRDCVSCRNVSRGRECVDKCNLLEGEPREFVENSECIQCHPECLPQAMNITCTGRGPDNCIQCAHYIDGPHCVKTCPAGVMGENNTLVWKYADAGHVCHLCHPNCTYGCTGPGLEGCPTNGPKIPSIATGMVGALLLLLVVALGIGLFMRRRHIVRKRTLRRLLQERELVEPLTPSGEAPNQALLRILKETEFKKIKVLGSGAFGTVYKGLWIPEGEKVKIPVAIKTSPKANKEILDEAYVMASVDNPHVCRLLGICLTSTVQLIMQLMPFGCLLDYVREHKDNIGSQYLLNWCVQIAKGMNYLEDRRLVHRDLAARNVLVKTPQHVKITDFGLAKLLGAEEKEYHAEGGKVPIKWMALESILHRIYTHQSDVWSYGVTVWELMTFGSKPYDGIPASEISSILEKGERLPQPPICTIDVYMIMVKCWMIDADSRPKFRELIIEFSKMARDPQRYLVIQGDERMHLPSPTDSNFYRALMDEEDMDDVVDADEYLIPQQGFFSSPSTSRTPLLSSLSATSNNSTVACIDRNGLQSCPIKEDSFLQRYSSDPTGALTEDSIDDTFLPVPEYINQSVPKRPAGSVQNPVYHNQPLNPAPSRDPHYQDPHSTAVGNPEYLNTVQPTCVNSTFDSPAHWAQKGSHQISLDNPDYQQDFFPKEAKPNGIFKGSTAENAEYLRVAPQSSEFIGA

Turning to `C=CC(=O)Nc1ccc(OC)c(Nc2ncc(C)c(Nc3ccccc3P(C)(C)=O)n2)c1` [Example 64, N-(3-((4-((2-(dimethylphosphoryl)phenyl)amino)-5-methylpyrimidin-2-yl)amino)-4-methoxyphenyl)acrylamide], the IC50 was less than 51 nM in test [1]; less than 51 nM in test [2]; less than 51 nM in test [3]; less than 51 nM in test [4]; no less than 250 nM in the test with BAF3 PARENTAL; less than 51 nM in test [5].
For the compound `C=CC(=O)Nc1ccc(OC)c(Nc2ncc(C3CC3)c(Nc3ccccc3P(C)(C)=O)n2)c1` [Example 65, N-(3-((5-cyclopropyl-4-((2-(dimethylphosphoryl)phenyl)amino)pyrimidin-2-yl)amino)-4-methoxyphenyl)acrylamide], the half-inhibitory concentration (IC50) is less than 51 nM in test [1]; less than 51 nM in test [2]; less than 51 nM in test [3]; 51 to 100 nM in test [4]; no less than 250 nM with BAF3 PARENTAL; less than 51 nM in test [5].
